The supplement of paper PMC10307832

What was measured:
Assay in all cases: relative viability (nuclei count vs DMSO), 5 days (fraction); higher = more cells survive
[1] = compound: CO[C@H]1C[C@@H]2CC[C@@H](C)[C@@](O)(O2)C(=O)C(=O)N2CCCC[C@H]2C(=O)O[C@H]([C@H](C)C[C@@H]2CC[C@@H](OCCO)[C@H](OC)C2)CC(=O)[C@H](C)/C=C(\C)[C@@H](O)[C@@H](OC)C(=O)[C@H](C)C[C@H](C)/C=C/C=C/C=C/1C [Everolimus] + CCNC(=O)c1noc(-c2cc(C(C)C)c(O)cc2O)c1-c1ccc(CN2CCOCC2)cc1 [Luminespib] (partner 0.01 µM)
Outline: (§1)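 Values are medians from duplicate plates. Each reflects relative viability, defined as the nuclei count of treated wells over that of vehicle wells. Lung cancer cell lines in 1536-well plates were pin-tool dosed one day after seeding with one drug alone or with a fixed anchor-drug dose plus five library-drug doses (not always all listed) in √10 steps, then fixed, stained and imaged at 4× after 5 days.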

[2] = compound: CO[C@H]1C[C@@H]2CC[C@@H](C)[C@@](O)(O2)C(=O)C(=O)N2CCCC[C@H]2C(=O)O[C@H]([C@H](C)C[C@@H]2CC[C@@H](OCCO)[C@H](OC)C2)CC(=O)[C@H](C)/C=C(\C)[C@@H](O)[C@@H](OC)C(=O)[C@H](C)C[C@H](C)/C=C/C=C/C=C/1C [Everolimus] + Nc1ncn([C@H]2C[C@H](O)[C@@H](CO)O2)c(=O)n1 [Decitabine] (partner 2 µM)
Outline: as §1

[3] = compound: CO[C@H]1C[C@@H]2CC[C@@H](C)[C@@](O)(O2)C(=O)C(=O)N2CCCC[C@H]2C(=O)O[C@H]([C@H](C)C[C@@H]2CC[C@@H](OCCO)[C@H](OC)C2)CC(=O)[C@H](C)/C=C(\C)[C@@H](O)[C@@H](OC)C(=O)[C@H](C)C[C@H](C)/C=C/C=C/C=C/1C [Everolimus] + O=C(c1cc(Cc2n[nH]c(=O)c3ccccc23)ccc1F)N1CCN(C(=O)C2CC2)CC1 [Olaparib] (partner 8 µM)
Outline: as §1

[4] = compound: CO[C@H]1C[C@@H]2CC[C@@H](C)[C@@](O)(O2)C(=O)C(=O)N2CCCC[C@H]2C(=O)O[C@H]([C@H](C)C[C@@H]2CC[C@@H](OCCO)[C@H](OC)C2)CC(=O)[C@H](C)/C=C(\C)[C@@H](O)[C@@H](OC)C(=O)[C@H](C)C[C@H](C)/C=C/C=C/C=C/1C [Everolimus] + CS(=O)(=O)CCNCc1ccc(-c2ccc3ncnc(Nc4ccc(OCc5cccc(F)c5)c(Cl)c4)c3c2)o1 [Lapatinib] (partner 2 µM)
Outline: as §1

| Cell Line | relative viability ([1]; first compound 0.01 µM) | relative viability ([1]; first compound 0.03162 µM) | relative viability ([1]; first compound 0.1 µM) | relative viability ([1]; first compound 0.3162 µM) | relative viability ([1]; first compound 1 µM) | relative viability ([2]; first compound 0.01 µM) | relative viability ([2]; first compound 0.03162 µM) | relative viability ([2]; first compound 0.1 µM) | relative viability ([2]; first compound 0.3162 µM) | relative viability ([2]; first compound 1 µM) | relative viability ([3]; first compound 0.01 µM) | relative viability ([3]; first compound 0.03162 µM) | relative viability ([3]; first compound 0.1 µM) | relative viability ([3]; first compound 0.3162 µM) | relative viability ([3]; first compound 1 µM) | relative viability ([4]; first compound 0.01 µM) | relative viability ([4]; first compound 0.03162 µM) | relative viability ([4]; first compound 0.1 µM) | relative viability ([4]; first compound 0.3162 µM) | relative viability ([4]; first compound 1 µM) |
| --- | --- | --- | --- | --- | --- | --- | --- | --- | --- | --- | --- | --- | --- | --- | --- | --- | --- | --- | --- | --- |
| NCI-H522 | 0.841 | 0.631 | 0.767 | 0.738 | 0.811 | 0.594 | 0.677 | 0.517 | 0.684 | 0.537 | 0.609 | 0.474 | 0.429 | 0.448 | 0.438 |  |  |  |  |  |
| NCI-H1755 | 0.372 | 0.312 | 0.347 | 0.347 | 0.244 | 0.582 | 0.56 | 0.489 | 0.52 | 0.534 | 0.764 | 0.592 | 0.697 | 0.556 | 0.588 | 0.866 | 0.964 | 0.769 | 0.876 | 0.77 |
| NCI-H2228 | 0.114 | 0.185 | 0.145 | 0.131 | 0.115 |  |  |  |  |  | 0.658 | 0.289 | 0.336 | 0.266 | 0.311 | 0.89 | 0.7 | 0.705 | 0.582 | 0.793 |
| NCI-H2087 | 0.168 | 0.205 | 0.146 | 0.143 | 0.15 | 0.229 | 0.205 | 0.2 | 0.198 | 0.257 | 0.491 | 0.444 | 0.524 | 0.465 | 0.508 | 1.2 | 1.05 | 0.824 | 0.848 | 1.05 |
| LU99A | 0.226 | 0.204 | 0.185 | 0.191 | 0.253 | 0.537 | 0.514 | 0.43 | 0.485 | 0.566 | 0.246 | 0.21 | 0.226 | 0.216 | 0.236 | 0.621 | 0.548 | 0.573 | 0.52 | 0.55 |
| NCI-H1355 | 0.302 | 0.33 | 0.268 | 0.258 | 0.265 | 0.353 | 0.3 | 0.305 | 0.318 | 0.261 | 0.486 | 0.514 | 0.426 | 0.536 | 0.48 | 0.471 | 0.44 | 0.363 | 0.53 | 0.436 |
| NCI-H520 | 0.23 | 0.237 | 0.215 | 0.235 | 0.206 | 0.273 | 0.281 | 0.26 | 0.287 | 0.294 | 0.29 | 0.209 | 0.296 | 0.18 | 0.312 | 0.379 | 0.39 | 0.313 | 0.285 | 0.405 |
| NCI-H661 | 0.821 | 0.767 | 0.659 | 0.688 | 0.534 | 0.429 | 0.429 | 0.428 | 0.435 | 0.397 | 0.672 | 0.64 | 0.576 | 0.593 | 0.491 | 0.358 | 0.428 | 0.341 | 0.276 | 0.299 |
| NCI-H650 | 0.858 |  | 0.511 | 0.609 | 0.345 | 0.316 | 0.287 | 0.335 | 0.281 | 0.318 | 0.397 | 0.37 | 0.373 | 0.284 | 0.307 | 0.652 |  | 0.716 | 0.598 | 0.479 |
| NCI-H647 | 0.11 | 0.143 | 0.111 | 0.107 | 0.142 | 0.16 | 0.157 | 0.101 | 0.0533 | 0.158 | 0.268 | 0.303 | 0.199 | 0.176 | 0.368 | 0.583 | 0.562 | 0.505 | 0.536 | 0.87 |
| NCI-H1299 |  |  |  |  |  |  |  |  |  |  | 0.953 | 0.987 | 0.994 | 1.04 | 0.841 | 0.975 | 1.06 | 0.974 | 0.994 | 1 |
| HCC-78 |  |  |  |  |  | 0.593 | 0.605 | 0.636 | 0.643 | 0.603 | 0.827 | 0.43 | 0.657 | 0.717 | 0.678 | 0.633 | 1.28 | 0.521 | 0.36 | 0.534 |
| NCI-H2342 | 0.668 | 0.496 | 0.426 | 0.46 | 0.553 | 0.652 | 0.534 | 0.474 | 0.512 | 0.537 | 0.385 | 0.363 | 0.304 | 0.333 | 0.36 |  |  |  |  |  |
| HCC-366 |  |  |  |  |  | 0.301 | 0.226 | 0.257 | 0.291 | 0.212 | 0.337 | 0.271 | 0.302 | 0.27 | 0.284 | 0.89 | 1.11 | 0.994 | 0.992 | 0.589 |
| LCLC-103H | 0.839 | 0.819 | 0.689 | 0.741 | 0.733 | 0.682 | 0.682 | 0.633 | 0.58 | 0.653 | 0.709 | 0.762 | 0.669 | 0.685 | 0.761 |  |  |  |  |  |
| NCI-H1563 | 0.54 | 0.479 | 0.548 | 0.501 | 0.496 |  |  |  |  |  |  |  |  |  |  | 0.785 | 0.839 | 0.758 | 0.769 | 0.817 |
| EBC-1 |  |  |  |  |  |  |  |  |  |  | 0.505 | 0.324 | 0.31 | 0.349 | 0.334 | 0.23 | 0.218 | 0.208 | 0.184 | 0.25 |
| Calu-6 |  |  |  |  |  |  |  |  |  |  | 0.624 | 0.68 | 0.646 | 0.552 | 0.705 | 0.987 | 1.02 | 0.907 | 0.927 | 0.994 |
